Patent EP0172919A1, “CEPHALOSPORIN DERIVATIVES, PROCESS FOR THEIR PREPARATION, AND THEIR PHARMACEUTICAL USE” (TEIJIN LIMITED, priority 1984, dated 1985)
Converted amounts (≈) assume the structure as drawn. Like-named read-outs stand apart in the source and are kept apart here.

What was measured:
[1] = test system: Micrococcus luteus ATCC9341; assay: In vitro antibacterial activity, two-fold agar-plate dilution method (MIC); format: cell-based
Protocol: (§1) In vitro antibacterial activity was determined by the two-fold agar-plate dillution method.
(§2) One loopful of an overnight culture of each test starin in Trypticase-soy broth (10^6 viable cells per mt) was streaked on heart infusion agar (Muller-Hinton Agar) containing graded concentrations of representative test compound, and the minimal inhibitory concentration (MIC) was expressed in terms of µg/ml after incubation at 37°C for 16 hours.

[2] = test system: Salmonera typhimurium IID 971; assay: as above; format: cell-based; settings: 37°C for 16 hours
Protocol: as §1, §2

[3] = test system: Staphyrococcus aureus FDA209JC-1; assay: as above; format: cell-based
Protocol: as §1, §2

[4] = test system: Escherichia coli K-12C-600; assay: as above; format: cell-based; settings: K12C600, 37°C for 16 hours
Protocol: as §1, §2

[5] = test system: Salmonera schottmuelleri 8001; assay: as above; format: cell-based; settings: 37°C for 16 hours
Protocol: as §1, §2

[6] = test system: Butilus subtilis ATCC6633; assay: as above; format: cell-based; settings: 37°C for 16 hours
Protocol: as §1, §2

[7] = test system: Pseudomonas aeruginosa PAO1; assay: as above; format: cell-based
Protocol: as §1, §2

[8] = test system: Pseudomonas aeruginosa NCTC10490; assay: as above; format: cell-based
Protocol: as §1, §2

[9] = test system: Staphyrococcus pyogenes COOK; assay: as above; format: cell-based
Protocol: as §1, §2

[10] = test system: Staphyrococcus aureus MS 353; assay: as above; format: cell-based
Protocol: as §1, §2

E.coli 81 [11] = assay: Duration of antibiotic activity: survival of mice dosed before E.coli 81 infection; format: in vivo, ICR strain male mice
Protocol: The duration of antibiotic activity of compound (100) was determined.
Experiment was performed in ICR strain male mice (5W). The animals were used in a group of 10 per regimen. A solution of E.coli 81 was injected intrapenetreally at a dose of 5 x 10^5 cell/head. Before one or three hours, the compound (100) was injected subcutaneously at a dose of 0.5 mg/head. Survival mice were counted on day 4 after injection.

E.coli 81 [12] = assay: MIC in E.coli 81 (Table IV); format: cell-based; settings: Escherichia coli, 81, 16 h, read-out: MIC (μg/mℓ) in E.coli 81
Protocol: as §1, §2

Staphyrococcus Terajima = assay: In vitro antibacterial activity, two-fold agar-plate dilution method (MIC); format: cell-based
Protocol: as §1, §2
(§3) In vitro antibacterial activities of other compounds of the present invention were determined in the same way as in Example 26.

Enterobacter cloacae 963 = assay: as above; format: cell-based
Protocol: as §1, §2, §3

[13] = test system: Pseudomonas aeruginosa IFO3445; assay: as above; format: cell-based
Protocol: as §1, §2, §3

E.coli 81 [14] = assay: In vivo antibacterial activity: survival of mice infected with E.coli 81; design: species or system ICR strain male mice
Protocol: Experiment was performed in ICR strain male mice (5W) weighing 22 to 25 g. The animals were used in a group of 10 per regimen. Test organism, E.coli 81, was cultured on Mueller-Hinton agar over night at 37°C and suspended in saline to be one minimal lethal dose (5 x 10^5 cells/head). One mililitre of the bacterial suspension was injected intrapenetoreally and, after 15 minutes, mice were treated subcutaneously with various doses of compound (100) and comparative compound B. Survival mice were counted for 4 days and final observation was carried out on day 4.

Proleus vulgaria OX-19 = assay: In vitro antibacterial activity, two-fold agar-plate dilution method (MIC); format: cell-based; settings: 37°C for 16 hours, read-out: MIC
Protocol: as §1, §2, §3

Salmonera paratyphi 1015 = assay: as above; format: cell-based; settings: 16 h
Protocol: as §1, §2, §3

[15] = test system: Serratia marcescens IAM1184; assay: as above; format: cell-based
Protocol: as §1, §2, §3

Proleus morgani IFO3848 = assay: as above; format: cell-based; settings: 37°C for 16 hours, read-out: MIC
Protocol: as §1, §2, §3

[16] = test system: Proleus vulgaris IFO 3850; assay: as above; format: cell-based
Protocol: as §1, §2, §3

[17] = Staphyrococcus Terajima, agar dilution, 37°C for 16 hours, read-out: MIC
[18] = Enterobacter cloacae 963, agar dilution, 37°C for 16 hours, read-out: MIC
[19] = Pseudomonas aeruginosa IFO3445, agar dilution, 37°C for 16 hours, read-out: MIC
[20] = Serratia marcescens, IAM1184, 16 h
[21] = Proleus vulgaris IFO 3850, agar dilution, 37°C for 16 hours, read-out: MIC

Row | Compound | MIC [2] [µg/mL] | MIC [4] [µg/mL] | MIC [5] [µg/mL] | MIC [6] [µg/mL] | MIC (Staphyrococcus Terajima; [17]) [µg/mL] | MIC (Enterobacter cloacae 963; [18]) [µg/mL] | MIC [13, 19] [µg/mL] | MIC (Proleus vulgaria OX-19) [µg/mL] | MIC (Salmonera paratyphi 1015) [µg/mL] | MIC [15, 20] [µg/mL] | MIC (Proleus morgani IFO3848) [µg/mL] | MIC [16, 21] [µg/mL] | further results
1 | CO/N=C(\C(=O)N[C@@H]1C(=O)N2C(C(=O)[O-])=C(C[N+]34CCCC3CCC4)CS[C@H]12)c1csc(N)n1 (stereo partly drawn) [Compound (100), (6R,7R)-7-[(Z)-2-(2-aminothiazol-4-yl)-2-meth-oxyiminoacetoamido]-3-(1-azabicyclo[3,3,0]octane-l-io)methyl-3-cephem-4-carboxylate] | 0.05 (≈ 0.0987 µM) | 0.05 (≈ 0.0987 µM) | < 0.0063 | 0.39 (≈ 0.77 µM) | 0.39 (≈ 0.77 µM) | 0.05 (≈ 0.0987 µM) | 1.56 (≈ 3.08 µM) |  |  |  |  |  | MIC ([1]; Micrococcus luteus ATCC9341, agar dilution, 37°C for 16 hours, read-out: MIC): < 0.0063 µg/mL; MIC ([3]; Staphyrococcus aureus FDA209JC-1, agar dilution, 37°C for 16 hours, read-out: MIC): 0.39 µg/mL (≈ 0.77 µM); MIC ([7]; Pseudomonas aeruginosa PAO1, agar dilution, 37°C for 16 hours, read-out: MIC): 0.1 µg/mL (≈ 0.197 µM); MIC ([8]; Pseudomonas aeruginosa NCTC10490, agar dilution, 37°C for 16 hours, read-out: MIC): 0.025 µg/mL (≈ 0.0493 µM); MIC ([9]; Staphyrococcus pyogenes COOK, agar dilution, 37°C for 16 hours, read-out: MIC): < 0.0063 µg/mL; MIC ([10]; Staphyrococcus aureus MS 353, agar dilution, 37°C for 16 hours, read-out: MIC): 0.2 µg/mL (≈ 0.395 µM); Survival percent (%) Injection before one hour (E.coli 81 [11]; 0.5 mg/head subcutaneously one hour before intraperitoneal E.coli 81 (5 x 10^5 cell/head), survival on day 4, mice): 100%; Survival percent (%) Injection before three hours (E.coli 81 [11]; 0.5 mg/head subcutaneously three hours before intraperitoneal E.coli 81 (5 x 10^5 cell/head), survival on day 4, mice): 100%; duration of antibiotic activity (E.coli 81 [11]; conclusion in words drawn from Table IV): excellent in duration of antibabiotic activity; MIC (E.coli 81 [12]): 0.025 µg/mL (≈ 0.0493 µM); Survivals percent (%) on day 4 (E.coli 81 [14]; Dose 0.016 mg/head subcutaneously 15 minutes after intraperitoneal E.coli 81 (5 x 10^5 cells/head)): 40%; Survivals percent (%) on day 4 (E.coli 81 [14]; Dose 0.032 mg/head subcutaneously 15 minutes after intraperitoneal E.coli 81 (5 x 10^5 cells/head)): 40%; Survivals percent (%) on day 4 (E.coli 81 [14]; Dose 0.063 mg/head subcutaneously 15 minutes after intraperitoneal E.coli 81 (5 x 10^5 cells/head)): 50%; Survivals percent (%) on day 4 (E.coli 81 [14]; Dose 0.125 mg/head subcutaneously 15 minutes after intraperitoneal E.coli 81 (5 x 10^5 cells/head)): 100%; Survivals percent (%) on day 4 (E.coli 81 [14]; Dose 0.25 mg/head subcutaneously 15 minutes after intraperitoneal E.coli 81 (5 x 10^5 cells/head)): 100%; Survivals percent (%) on day 4 (E.coli 81 [14]; Dose 0.5 mg/head subcutaneously 15 minutes after intraperitoneal E.coli 81 (5 x 10^5 cells/head)): 100%
2 | CO/N=C(\C(=O)N[C@@H]1C(=O)N2C(C(=O)[O-])=C(C[N+]34CCC(CC3)C(O)C4)CS[C@H]12)c1csc(N)n1 (stereo partly drawn) [Compound (302), (6R,7R)-7-[(Z)-2-(2-aminothiazol-4-yℓ)-2-methoxyiminoacetoamido]-3-(1-aza-3-hydro-xybicyclo[2,2,2]octane-l-io)methyl-3-cephem-4-carboxylate] |  |  |  |  | 0.1 (≈ 0.191 µM) | 0.025 (≈ 0.0478 µM) | 0.39 (≈ 0.746 µM) | 0.025 (≈ 0.0478 µM) | 0.0125 (≈ 0.0239 µM) | 0.0125 (≈ 0.0239 µM) | 0.0063 (≈ 0.0121 µM) | 0.0063 (≈ 0.0121 µM) | 
3 | CO/N=C(\C(=O)N[C@@H]1C(=O)N2C(C(=O)[O-])=C(C[N+]34CCC(CC3)C(=O)C4)CS[C@H]12)c1csc(N)n1 [Compound (300), (6R,7R)-7-[(Z)-2-(2-aminothiazol-4-yl)-2-methoxyiminoacetoamido]-3-(1-aza-3-carbonyl-bicyclo[2,2,2]octane-l-io)methyl-3-cephem-4-carboxylate] |  |  |  |  | 0.2 (≈ 0.384 µM) | 0.025 (≈ 0.048 µM) | 0.39 (≈ 0.749 µM) | 0.025 (≈ 0.048 µM) | 0.0125 (≈ 0.024 µM) | 0.0125 (≈ 0.024 µM) | > 0.0063 |  | MIC ([16]; 16 h): 0.0125 µg/mL (≈ 0.024 µM)
4 | CO/N=C(\C(=O)N[C@@H]1C(=O)N2C(C(=O)[O-])=C(C[N+]34CCC(CC3)C4)CS[C@H]12)c1csc(N)n1 [Compound (200), (6R,7R)-7-[(Z)-2-(2-aminothiazol-4-yℓ)-2-methoxyiminoacetoamido]-3-(1-azabicyclo[2,2,1]heptane-l-io)methyl-3-cephem-4-carboxylate] |  |  |  |  | 0.2 (≈ 0.406 µM) | 0.05 (≈ 0.102 µM) | 1.56 (≈ 3.17 µM) | 0.05 (≈ 0.102 µM) | 0.025 (≈ 0.0508 µM) |  | 0.0063 (≈ 0.0128 µM) | 0.0125 (≈ 0.0254 µM) | MIC ([15]; Serratia marcescens IAM1184, agar dilution, 37°C for 16 hours, read-out: MIC): 0.025 µg/mL (≈ 0.0508 µM)
5 | CC(C)(ON=C(C(=O)NC1C(=O)N2C(C(=O)[O-])=C(C[n+]3ccccc3)CSC12)c1csc(N)n1)C(=O)O (stereo not drawn) [Comparative compound A] | 0.39 (≈ 0.714 µM) | 0.2 (≈ 0.366 µM) | 0.025 (≈ 0.0457 µM) | 0.78 (≈ 1.43 µM) |  |  |  |  |  |  |  |  | MIC ([1]; Micrococcus luteus, ATCC9341, 16 h): 0.0063 µg/mL (≈ 0.0115 µM); MIC ([3]; 16 h): 1.56 µg/mL (≈ 2.85 µM); MIC ([7]; Pseudomonas aeruginosa, PAO1, 16 h): 0.1 µg/mL (≈ 0.183 µM); MIC ([8]; Pseudomonas aeruginosa, NCTC10490, 16 h): 0.39 µg/mL (≈ 0.714 µM); MIC ([9]; 16 h): 0.0063 µg/mL (≈ 0.0115 µM); MIC ([10]; 16 h): 1.56 µg/mL (≈ 2.85 µM); MIC (Staphyrococcus Terajima; 16 h): 1.56 µg/mL (≈ 2.85 µM); MIC (Enterobacter cloacae 963; Enterobacter cloacae, 963, 16 h): 0.2 µg/mL (≈ 0.366 µM); MIC ([13]; Pseudomonas aeruginosa, IFO3445, 16 h): 1.56 µg/mL (≈ 2.85 µM)
